The text below walks through data of ChEMBL document CHEMBL1177708, “Design, synthesis, and biological evaluation of a novel class of gamma-secretase modulators with PPARgamma activity” (J Med Chem, 2010).

Active and inactive are the calls of the source. The rule behind the calls is not given here.

Data set [1] relates to CHO. The data set is described as follows: Cytotoxicity against CHO cells at 60 uM after 24 hrs by Alamar blue assay. Conditions: chinese hamster. It counts as cell-based, Cricetulus griseus.
In data set [2] the target is T1, Prostaglandin G/H synthase 1 (Ovis aries, UniProt P05979).
T1 sequence (P05979 whole entry): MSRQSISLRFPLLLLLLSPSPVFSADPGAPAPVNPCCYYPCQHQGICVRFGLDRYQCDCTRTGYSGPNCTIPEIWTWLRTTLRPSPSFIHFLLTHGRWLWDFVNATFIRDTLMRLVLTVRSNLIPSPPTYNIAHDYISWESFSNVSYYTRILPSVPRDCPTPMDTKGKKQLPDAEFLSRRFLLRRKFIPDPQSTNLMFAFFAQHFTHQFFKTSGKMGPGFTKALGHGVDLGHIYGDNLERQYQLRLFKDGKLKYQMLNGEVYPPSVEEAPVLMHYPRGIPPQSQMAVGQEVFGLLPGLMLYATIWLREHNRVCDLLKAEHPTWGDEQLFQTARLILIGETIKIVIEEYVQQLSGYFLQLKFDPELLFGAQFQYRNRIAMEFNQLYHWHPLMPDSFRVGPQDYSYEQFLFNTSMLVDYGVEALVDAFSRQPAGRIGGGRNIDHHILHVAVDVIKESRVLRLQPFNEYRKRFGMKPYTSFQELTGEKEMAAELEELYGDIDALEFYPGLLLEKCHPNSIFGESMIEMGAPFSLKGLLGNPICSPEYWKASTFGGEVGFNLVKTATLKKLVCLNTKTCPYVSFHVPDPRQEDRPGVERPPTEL
Description: Inhibition of ovine COX1 after 5 mins

In data set [3] the target is T2, Peroxisome proliferator-activated receptor gamma (Homo sapiens) (UniProt P37231).
T2 sequence (whole entry): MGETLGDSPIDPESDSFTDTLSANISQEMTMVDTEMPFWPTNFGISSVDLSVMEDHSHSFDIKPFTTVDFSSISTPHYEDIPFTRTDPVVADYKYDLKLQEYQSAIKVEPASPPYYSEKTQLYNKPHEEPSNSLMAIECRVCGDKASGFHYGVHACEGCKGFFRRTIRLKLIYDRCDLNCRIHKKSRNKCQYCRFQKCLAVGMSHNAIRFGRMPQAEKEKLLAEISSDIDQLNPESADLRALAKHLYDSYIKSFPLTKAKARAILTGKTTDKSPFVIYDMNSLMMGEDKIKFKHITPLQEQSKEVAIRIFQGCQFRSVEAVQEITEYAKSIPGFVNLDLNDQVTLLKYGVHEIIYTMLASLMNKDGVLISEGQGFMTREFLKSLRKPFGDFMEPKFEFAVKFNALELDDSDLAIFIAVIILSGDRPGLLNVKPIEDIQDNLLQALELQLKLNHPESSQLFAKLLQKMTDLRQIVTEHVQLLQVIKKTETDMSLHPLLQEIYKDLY
Put plainly: Agonist activity at human PPARgamma-LBD expressed in COS7 cells co-transfected with Gal4 by luciferase based transactivation assay relative to pioglitazone. Type of data set: functional, cell-based. Conditions: COS-7.

The test system of data set [4] is CHO. Put plainly: Cytotoxicity against CHO cells at 40 uM after 24 hrs by Alamar blue assay. It counts as cell-based, Cricetulus griseus. Conditions: chinese hamster. For orientation: Alamar Blue is a resazurin reagent that responds to reducing activity.
Data set [5] concerns the target T3, Peroxisome proliferator-activated receptor delta (Homo sapiens) (UniProt Q03181).
T3 sequence (whole entry): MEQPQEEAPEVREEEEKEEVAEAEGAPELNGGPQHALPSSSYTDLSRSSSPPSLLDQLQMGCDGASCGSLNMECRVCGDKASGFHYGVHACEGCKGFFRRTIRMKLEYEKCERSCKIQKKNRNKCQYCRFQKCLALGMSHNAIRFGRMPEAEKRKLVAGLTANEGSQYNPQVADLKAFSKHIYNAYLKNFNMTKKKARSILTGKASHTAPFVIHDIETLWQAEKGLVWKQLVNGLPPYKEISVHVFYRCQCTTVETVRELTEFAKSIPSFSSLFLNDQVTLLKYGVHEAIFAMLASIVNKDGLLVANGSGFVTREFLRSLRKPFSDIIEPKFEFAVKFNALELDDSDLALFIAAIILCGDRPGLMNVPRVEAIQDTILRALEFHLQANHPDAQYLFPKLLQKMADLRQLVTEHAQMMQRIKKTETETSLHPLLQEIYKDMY
Put plainly: Agonist activity at human PPARdelta-LBD expressed in COS7 cells co-transfected with Gal4 at 10 uM by luciferase based transactivation assay. Type of data set: functional, cell-based. Conditions: COS-7.

Data set [6] in a line: Modulation of gamma-secretase-mediated cleavage of human APP expressed in CHO cells with human presenilin-1 assessed as activation of amyloid beta38 production after 24 hrs by ELISA. Type of data set: cell-based. Background: ELISA stands for enzyme-linked immunosorbent assay.
Data set [7] is described as follows: cells. Conditions: CHO, 24 h.
Description: Modulation of gamma-secretase-mediated cleavage of human APP expressed in CHO cells with human presenilin-1 assessed as inhibition of amyloid beta42 production after 24 hrs by ELISA
Data set [8] has as its target T4, Peroxisome proliferator-activated receptor alpha (Homo sapiens) (UniProt Q07869).
T4 sequence (whole entry): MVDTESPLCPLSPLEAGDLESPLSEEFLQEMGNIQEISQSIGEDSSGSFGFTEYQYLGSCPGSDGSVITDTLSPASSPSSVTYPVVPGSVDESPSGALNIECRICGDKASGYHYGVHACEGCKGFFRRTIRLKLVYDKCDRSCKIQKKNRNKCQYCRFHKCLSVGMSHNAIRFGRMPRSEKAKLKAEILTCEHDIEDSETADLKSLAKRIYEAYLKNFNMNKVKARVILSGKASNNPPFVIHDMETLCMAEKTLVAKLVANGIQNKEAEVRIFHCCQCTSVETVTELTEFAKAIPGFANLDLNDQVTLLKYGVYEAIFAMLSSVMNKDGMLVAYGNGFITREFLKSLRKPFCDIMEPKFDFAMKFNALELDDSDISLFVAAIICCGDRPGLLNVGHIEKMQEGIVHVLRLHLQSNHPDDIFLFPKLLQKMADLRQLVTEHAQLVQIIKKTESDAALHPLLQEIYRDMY
The data set is described as follows: Agonist activity at human PPARalpha-LBD expressed in COS7 cells co-transfected with Gal4 at 10 uM by luciferase based transactivation assay. Type of data set: functional, cell-based. Conditions: COS-7.

Data set [9] has as its target T5, Peroxisome proliferator-activated receptor gamma (Homo sapiens, UniProt P37231).
T5 sequence (P37231 whole entry): T2 sequence (whole entry)
Put plainly: Agonist activity at human PPARgamma-LBD expressed in COS7 cells co-transfected with Gal4 by luciferase based transactivation assay. It counts as functional, cell-based, COS-7.

The target in data set [10] is T6, Prostaglandin G/H synthase 2 (Homo sapiens) (UniProt P35354).
T6 sequence (whole entry): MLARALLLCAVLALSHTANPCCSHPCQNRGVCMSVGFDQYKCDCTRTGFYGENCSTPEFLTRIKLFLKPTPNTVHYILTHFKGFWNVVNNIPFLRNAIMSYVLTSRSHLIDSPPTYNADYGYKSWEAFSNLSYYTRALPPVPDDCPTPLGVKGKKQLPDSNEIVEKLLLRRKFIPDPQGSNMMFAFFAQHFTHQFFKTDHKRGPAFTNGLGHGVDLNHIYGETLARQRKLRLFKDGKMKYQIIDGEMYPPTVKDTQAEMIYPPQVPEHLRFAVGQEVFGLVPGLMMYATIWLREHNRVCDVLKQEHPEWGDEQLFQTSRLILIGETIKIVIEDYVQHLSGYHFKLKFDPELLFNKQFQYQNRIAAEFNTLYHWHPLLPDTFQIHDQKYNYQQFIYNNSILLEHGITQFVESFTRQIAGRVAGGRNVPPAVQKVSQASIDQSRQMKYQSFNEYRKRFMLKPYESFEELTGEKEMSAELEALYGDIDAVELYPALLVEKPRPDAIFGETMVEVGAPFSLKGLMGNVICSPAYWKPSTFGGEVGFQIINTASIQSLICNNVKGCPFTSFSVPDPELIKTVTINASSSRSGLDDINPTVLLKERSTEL
Put plainly: Inhibition of human recombinant COX2 assessed as residual activity at 10 uM after 5 mins.

For data set [11], the target named is T7, Prostaglandin G/H synthase 1 (Ovis aries) (UniProt P05979).
T7 sequence (whole entry): T1 sequence (P05979 whole entry)
The data set is described as follows: Inhibition of ovine COX1 assessed as residual activity at 10 uM after 5 mins.

Data set [12] deals with CHO. Put plainly: Modulation of gamma-secretase-mediated notch signaling expressed in CHO cells transfected with Gal4-DNA-binding/VP16 transactivation domain assessed as reduction of reporter activity at 5 to 40 uM after 24 hrs. It counts as cell-based.

A word on the IC50: it is the point on the concentration scale where inhibition reaches its midpoint. High values mean weaker potency in that assay, low ones greater potency in that assay. For orientation: EC50 means the concentration that produces a half-maximal response. On to `CCCCC(Sc1nc(OCCc2ccc(C(F)(F)F)cc2)cc(OCCc2ccc(C(F)(F)F)cc2)n1)C(=O)O` (configuration not stated), for which the Activity was 25% in data set [1], “Non-toxic” in data set [4], 69% in data set [10] and 54.4% in [11]. In addition, the IC50 in data set [2] is 16.9 µM; in data set [7] it was 6 µM. In addition, in [3], the Emax was determined as 112%. In addition, the result in data set [5], in data set [8] and in data set [12] was inactive. Moreover, the EC50 in data set [6] stood at 1.8 µM; in [9], 11 µM.
